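48-hour exposure; five concentrations; linearly interpolated endpoints. GI50: concentration for 50% inhibition of growth.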 Activity calls are given as the source filed them. No stated cut-off is given here; in the data, active = GI50 up to about 1.1 µM and inactive = higher.
Assays:
Test in all cases: growth of human tumour cells (NCI), 48 h
UACC-257 = test system: UACC-257
SF-539 = test system: SF-539
UACC-62 = test system: UACC-62
ACHN = test system: ACHN
SK-MEL-28 = test system: SK-MEL-28
OVCAR-3 = test system: OVCAR-3
CAKI-1 = test system: CAKI-1
A549 = test system: A549
OVCAR-4 = test system: OVCAR-4
KM12 = test system: KM12
TK-10 = test system: TK-10
SNB-19 = test system: SNB-19
786-0 = test system: 786-0
SK-MEL-2 = test system: SK-MEL-2

Measured: GI50

CCN(CC)CCOC(c1ccccc1)c1ccccc1.CCOC(=O)Nc1ccc(S(=O)(=O)OC)cc1.CCOC(=O)Nc1ccc(S(=O)(=O)OC)cc1.Nc1ccc(C(=O)O)c(O)c1
inactive: UACC-257 > 100 µM | SF-539 > 100 µM | UACC-62 > 100 µM | ACHN > 100 µM | SK-MEL-28 > 100 µM | OVCAR-3 > 100 µM | CAKI-1 > 100 µM | A549 > 100 µM | OVCAR-4 > 100 µM | KM12 > 100 µM | TK-10 > 100 µM | SNB-19 > 100 µM | 786-0 > 100 µM | SK-MEL-2 > 100 µM

CCOc1ccc(OCC(=O)O)c2c1CCCC2=O
inactive: UACC-257 > 100 µM | SF-539 > 100 µM | UACC-62 > 100 µM | ACHN > 100 µM | SK-MEL-28 > 100 µM | OVCAR-3 > 100 µM | A549 > 100 µM | OVCAR-4 > 100 µM | KM12 > 100 µM | TK-10 > 100 µM | SNB-19 > 100 µM | 786-0 > 100 µM | SK-MEL-2 > 100 µM

CCCNC(=O)c1cc2ccccc2cc1C(=O)OC
inactive: UACC-257 > 100 µM | SF-539 > 100 µM | UACC-62 > 100 µM | ACHN 78.2 µM | SK-MEL-28 > 100 µM | OVCAR-3 > 100 µM | CAKI-1 > 100 µM | A549 > 100 µM | OVCAR-4 > 100 µM | KM12 > 100 µM | TK-10 > 100 µM | SNB-19 > 100 µM | 786-0 > 100 µM | SK-MEL-2 > 100 µM

COc1cc(O)c(C(=O)C2Cc3ccccc32)c(OC)c1 (stereo unspecified)
inactive: UACC-257 47.3 µM | SF-539 > 100 µM | UACC-62 57.5 µM | ACHN 50.7 µM | CAKI-1 25.6 µM | A549 35.8 µM | OVCAR-4 64.4 µM | KM12 32.4 µM | TK-10 > 100 µM | SNB-19 > 100 µM | 786-0 44.2 µM | SK-MEL-2 34.3 µM

COc1ccc(C(=O)c2c(C(C(=O)c3ccc(OC)cc3)C(=O)c3ccc(OC)cc3)n(C(=O)c3ccc(OC)cc3)c3ccccc23)cc1
inactive: SF-539 > 100 µM | UACC-62 > 100 µM | ACHN > 100 µM | SK-MEL-28 > 100 µM | OVCAR-3 > 100 µM | CAKI-1 > 100 µM | A549 > 100 µM | OVCAR-4 > 100 µM | KM12 > 100 µM | TK-10 > 100 µM | SNB-19 > 100 µM | 786-0 > 100 µM | SK-MEL-2 > 100 µM

O=C1OC(CC(=O)c2ccc(Cl)c(Cl)c2)C(Cl)=C1Cl (stereo unspecified)
inactive: UACC-257 > 100 µM | SF-539 74.5 µM | UACC-62 > 100 µM | ACHN > 100 µM | SK-MEL-28 > 100 µM | OVCAR-3 > 100 µM | CAKI-1 > 100 µM | A549 > 100 µM | OVCAR-4 > 100 µM | KM12 > 100 µM | TK-10 > 100 µM | SNB-19 79.3 µM | 786-0 > 100 µM | SK-MEL-2 > 100 µM

Cc1cc(NS(=O)(=O)c2ccc(NC(=O)c3cccn4c(=O)c5ccccc5nc34)cc2)no1
inactive: UACC-257 > 100 µM | SF-539 > 100 µM | UACC-62 > 100 µM | ACHN > 100 µM | SK-MEL-28 > 100 µM | OVCAR-3 > 100 µM | CAKI-1 > 100 µM | A549 > 100 µM | OVCAR-4 > 100 µM | KM12 > 100 µM | TK-10 > 100 µM | SNB-19 > 100 µM | 786-0 > 100 µM

CCOC(OCC)(OCC)C(Br)CC (stereo unspecified)
inactive: UACC-257 > 100 µM | SF-539 > 100 µM | UACC-62 > 100 µM | ACHN > 100 µM | SK-MEL-28 > 100 µM | OVCAR-3 > 100 µM | CAKI-1 > 100 µM | A549 > 100 µM | OVCAR-4 > 100 µM | KM12 > 100 µM | TK-10 > 100 µM | SNB-19 > 100 µM | 786-0 16.4 µM | SK-MEL-2 > 100 µM

N=C(N)NCCCC(NCc1c2ccccc2[n+]([O-])c2ccccc12)C(=O)O (stereo unspecified)
inactive: UACC-257 > 100 µM | UACC-62 54.8 µM | ACHN 42.7 µM | SK-MEL-28 40.8 µM | OVCAR-3 > 100 µM | CAKI-1 60.8 µM | A549 > 100 µM | OVCAR-4 31.2 µM | KM12 50.8 µM | TK-10 > 100 µM | SNB-19 55.6 µM | 786-0 38.9 µM | SK-MEL-2 > 100 µM

CC/C=C/c1cc2c(c3[nH]ccc13)[C@@H](C)CC2C.CC/C=C/c1cc2cc[nH]c2c2c1C(C)C[C@@H]2C.CCc1cc2c(c3[nH]ccc13)[C@@H](C)CC2C (stereo partly specified)
inactive: UACC-257 16 µM | SF-539 16.1 µM | ACHN 16.2 µM | SK-MEL-28 15.7 µM | CAKI-1 15.1 µM | A549 21.4 µM | OVCAR-4 15.4 µM | KM12 16.8 µM | TK-10 22.1 µM | SNB-19 19.2 µM | 786-0 17 µM | SK-MEL-2 15.4 µM

COc1ccc2cc3n(c(=O)c2c1)CCc1c-3cc(OC)c(OC)c1OC
inactive: UACC-257 > 100 µM | SF-539 60 µM | UACC-62 > 100 µM | ACHN > 100 µM | SK-MEL-28 > 100 µM | OVCAR-3 > 100 µM | CAKI-1 > 100 µM | A549 > 100 µM | OVCAR-4 > 100 µM | TK-10 > 100 µM | SNB-19 > 100 µM | 786-0 > 100 µM | SK-MEL-2 56 µM

CN(C)CCN1CCc2c([nH]c3ccccc23)C1c1cccnc1 (stereo unspecified)
inactive: UACC-257 > 100 µM | SF-539 > 100 µM | UACC-62 > 100 µM | ACHN 23 µM | SK-MEL-28 > 100 µM | OVCAR-3 > 100 µM | CAKI-1 > 100 µM | A549 > 100 µM | OVCAR-4 > 100 µM | KM12 > 100 µM | TK-10 > 100 µM | SNB-19 > 100 µM | 786-0 > 100 µM

CC(C)=CCC/C(C)=C/Cc1c(O)ccc2c1[nH]c1cc(O)c(C)cc12
inactive: SF-539 6.95 µM | UACC-62 16.9 µM | ACHN 8.85 µM | SK-MEL-28 > 25 µM | OVCAR-3 5.73 µM | A549 8.87 µM | OVCAR-4 3.78 µM | KM12 10.6 µM | TK-10 > 25 µM | SNB-19 9.46 µM | 786-0 9.48 µM | SK-MEL-2 > 25 µM

CCN(CC)CCCC(C)Nc1c2cc(OC)cc(C)c2nc2c(C)c(Cl)ccc12 (stereo unspecified)
inactive: UACC-257 1.81 µM | UACC-62 1.79 µM | ACHN 1.69 µM | SK-MEL-28 1.95 µM | OVCAR-3 1.79 µM | CAKI-1 1.92 µM | A549 1.89 µM | OVCAR-4 1.71 µM | KM12 1.64 µM | TK-10 1.73 µM | SNB-19 1.68 µM | 786-0 1.64 µM | SK-MEL-2 1.87 µM

Cc1ncc(CCl)c2c1OC(C)(C)OC2
inactive: UACC-257 77.1 µM | SF-539 33.6 µM | UACC-62 > 100 µM | ACHN 21.3 µM | SK-MEL-28 24 µM | OVCAR-3 26.1 µM | A549 > 100 µM | OVCAR-4 15.1 µM | KM12 37.5 µM | TK-10 > 100 µM | SNB-19 63.8 µM | 786-0 20.8 µM | SK-MEL-2 > 100 µM

Source: ChEMBL document CHEMBL1201862, “PubChem BioAssay data set” (2004)
